Experimental data from PMC11640089, “JRM-28, a Novel HDAC2 Inhibitor, Upregulates Plasticity-Associated Proteins in Hippocampal Neurons and Enhances Morphological Plasticity via Activation of CREB: Implications for Alzheimer’s Disease” (Cells, 2024).
Several values for one entry are separate records, joined by “and”; a condition that tells them apart may be missing. Identical values can stand only once. Like-named read-outs stand apart in the source and are kept apart here. Each block holds one molecule with its values, some of them ahead of it.

What was measured:
HDAC2 = HDAC2 (Homo sapiens, UniProt Q92769); test: HDAC2 inhibition assay, luminometric method (HDAC-Glo I/II); type: biochemical; set-up: purchased BPS Bioscience 50002; conditions: HDAC2 0.5 nM, read-out: IC50 HDAC2 inhibition (luminescence)
Protocol: HDAC2 inhibition assay was performed by either the luminometric or fluorimetric method applying the following procedures. The table (Table 1) represents the details of different HDAC proteins and antibodies used in all biochemical assays.
HDAC2 inhibition assay was performed by HDAC-Glo™ I/II Assays and Screening System (Catalog# G6420, Promega Corporation, Madison, WI, USA) by the luminometric method according to the manufacturer’s protocol. […] The HDAC-2 inhibition assay was performed as previously described to determine IC values. In brief, the purified HDAC2 was diluted in HDAC assay buffer (provided with the HDAC-Glo™ I/II Assays and Screening System) to the same concentration based on their calculated molar mass. […] Next, 10 µL of JRM-28 after serial dilution was added to 10 µL of diluted HDAC2 in such a way that the final HDAC2 concentration was 0.5 nM in each well of a 384-well microplate (Greiner, Kremsmünster, Austria). After 30 min of incubation, 20 µL of the HDAC-Glo substrate/developing reagent was added to each well according to the manufacturer’s instructions. The 384-well plate was then agitated on an orbital shaker for the mixing of components in each well for another 30 min at room temperature. Finally, luminescence was measured using a POLARstar Omega plate reader (BMG Labtech, Ortenberg, Germany).

HDAC6 = target: T1, HDAC6 (Homo sapiens, UniProt Q9UBN7); test: Fluorimetric HDAC inhibition assay, HDAC6; type: biochemical; conditions: reduced with DTT
T1 construct: purchased BPS Bioscience 50056
T1 sequence (Q9UBN7 1-1215): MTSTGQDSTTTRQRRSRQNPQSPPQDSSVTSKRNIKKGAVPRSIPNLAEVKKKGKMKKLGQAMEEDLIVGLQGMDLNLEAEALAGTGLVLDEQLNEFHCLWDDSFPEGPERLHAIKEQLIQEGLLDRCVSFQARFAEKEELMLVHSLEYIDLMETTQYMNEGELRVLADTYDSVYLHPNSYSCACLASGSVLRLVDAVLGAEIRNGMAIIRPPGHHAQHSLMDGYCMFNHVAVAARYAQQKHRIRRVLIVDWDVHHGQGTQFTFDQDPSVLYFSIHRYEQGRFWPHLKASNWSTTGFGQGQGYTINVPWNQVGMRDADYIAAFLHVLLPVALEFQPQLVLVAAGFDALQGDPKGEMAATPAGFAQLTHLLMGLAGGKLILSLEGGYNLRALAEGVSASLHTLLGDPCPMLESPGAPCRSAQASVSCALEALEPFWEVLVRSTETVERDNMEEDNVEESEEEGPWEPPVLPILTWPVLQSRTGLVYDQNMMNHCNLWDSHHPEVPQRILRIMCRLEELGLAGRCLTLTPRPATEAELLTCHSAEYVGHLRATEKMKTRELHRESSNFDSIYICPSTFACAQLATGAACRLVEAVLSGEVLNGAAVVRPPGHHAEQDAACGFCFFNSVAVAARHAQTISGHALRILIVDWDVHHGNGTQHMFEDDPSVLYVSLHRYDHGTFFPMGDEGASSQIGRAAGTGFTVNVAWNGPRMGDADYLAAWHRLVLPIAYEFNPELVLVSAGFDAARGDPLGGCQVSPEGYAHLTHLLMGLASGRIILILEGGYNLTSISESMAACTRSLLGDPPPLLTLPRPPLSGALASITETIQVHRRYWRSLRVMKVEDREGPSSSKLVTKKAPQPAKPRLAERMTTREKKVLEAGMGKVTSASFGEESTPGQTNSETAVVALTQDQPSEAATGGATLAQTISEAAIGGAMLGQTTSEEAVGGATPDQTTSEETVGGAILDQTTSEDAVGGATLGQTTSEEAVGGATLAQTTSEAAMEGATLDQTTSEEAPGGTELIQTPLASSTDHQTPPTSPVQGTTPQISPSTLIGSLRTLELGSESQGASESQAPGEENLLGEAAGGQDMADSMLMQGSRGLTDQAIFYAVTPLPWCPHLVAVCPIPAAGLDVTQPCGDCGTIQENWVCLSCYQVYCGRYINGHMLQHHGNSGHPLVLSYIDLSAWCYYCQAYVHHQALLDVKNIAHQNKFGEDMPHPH
Protocol: The inhibition of HDAC1, 2, 3, and 6 by JRM-28 was fluorometrically measured using the HDAC Fluorogenic Assay Kit (Catalog# 50034) by BPS bioscience. Purified recombinant human HDAC1 (Cat# 50051), HDAC3 (Cat# 50003), and HDAC6 (Cat# 50056) were also obtained from BPS Bioscience. The enzyme inhibition assay was performed according to the manufacturer’s protocol. […] Purified recombinant HDAC2 (supplied with the fluorogenic kit) was diluted to 6 ng/µL (5 µL/well with the supplied HDAC assay buffer). HDAC 1, 3, and 6 were also diluted to the optimized concentration (5 µL/well) with the HDAC assay buffer. The activity of JRM-28 was measured along with DTT control and DMSO as blank. After adding 5 µL of the diluted HDAC enzymes in designated wells, the 96-well plate (supplied with the kit) was incubated at 37 °C. Then, the reaction was initiated by adding 5 µL of diluted HDAC substrate to each well, followed by another incubation at 37 °C for 30 min. Next, 50 µL of the developer reagent was added to each well and incubated at room temperature for another 15 min. Finally, fluorescence was measured by a microplate absorbance spectrophotometer (PerkinElmer Enspire 2300 Multilabel Multimode Microplate Reader) with an excitation at λ = 485 nm and detection at λ = 528 nm.

HDAC2, sequence (Q92769 whole entry): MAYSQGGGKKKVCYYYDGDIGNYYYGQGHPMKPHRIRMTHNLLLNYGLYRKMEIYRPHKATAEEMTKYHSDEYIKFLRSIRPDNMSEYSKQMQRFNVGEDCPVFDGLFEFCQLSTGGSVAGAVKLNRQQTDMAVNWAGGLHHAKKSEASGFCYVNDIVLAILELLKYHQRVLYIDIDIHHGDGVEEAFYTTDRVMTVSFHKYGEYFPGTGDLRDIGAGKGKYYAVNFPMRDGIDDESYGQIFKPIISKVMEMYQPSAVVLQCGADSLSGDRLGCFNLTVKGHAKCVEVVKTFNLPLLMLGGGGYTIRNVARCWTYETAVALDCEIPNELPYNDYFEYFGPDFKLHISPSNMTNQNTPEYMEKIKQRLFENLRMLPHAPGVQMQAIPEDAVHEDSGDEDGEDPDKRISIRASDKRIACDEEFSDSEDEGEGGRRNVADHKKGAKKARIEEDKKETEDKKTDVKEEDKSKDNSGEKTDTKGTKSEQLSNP

- IC50 (HDAC2; without DTT (non-reduced dimer)): 12.9 µM
SMILES: CN(C(=O)CC(O)/C=C/CCSSCC/C=C/C(O)CC(=O)N(C)c1ccccc1)c1ccccc1 (stereo not drawn) [JRM-20, (4E,4’E)-7,7’-disulfanediylbis(3-hydroxy-N-methyl-N-phenylhept-4-enamide)]

- Hill coefficient HDAC6 (fluorimetric) (HDAC6): −5.116
SMILES: CN(C(=O)C[C@@H](O)/C=C/CCS(=O)O)c1ccccc1 [JRM-28a]

- IC50 (HDAC2; in the presence of DTT (reduced)): 2.7 µM and 2.71 µM
SMILES: CN(C(=O)C[C@@H](O)/C=C/CCS)c1ccccc1 [JRM-28b]
